Test results: patent US20150344444A1, “BET-PROTEIN-INHIBITING DIHYDROXYQUINOXALINONES” (BAYER PHARMA AKTIENGESELLSCHAFT, priority 2012, published 2015)

Legend:
MOLM-13 cells = experiment: MOLM-13 cell proliferation assay (alamarBlue); assay type: cell-based; conditions: inhibition of cell proliferation, 96 hours, human AML cell line
Experimental: (§1) In accordance with the invention, the ability of the substances to inhibit cell proliferation was determined Cell viability was determined by means of the alamarBlue® reagent (Invitrogen) in a Victor X3 Multilabel Reader (Perkin Elmer). The excitation wavelength was 530 nm and the emission wavelength […].
The MOLM-13 cells (DSMZ, ACC 554) were sown at a concentration of 4000 cells/well in 100 μl of growth medium (RPMI1640, 10% FCS) on 96-well microtitre plates.
(§2) After overnight incubation at 37° C., the fluorescence values were determined (CI values). Then the plates were treated with various substance dilutions (1E-5 M, 3E-6 M, 1E-6 M, 3E-7 M, 1E-7 M, 3E-8 M, 1E-8 M) and incubated at 37° C. over 96 hours (MOLM-13, B16F10 cells) or 120 hours (MOLP-8 cells). Subsequently, the fluorescence values were determined (CO values). For the data analysis, the CI values were subtracted from the CO values and the results were compared between cells which had been treated with various dilutions of the substance or only with buffer solution. The IC50 values (substance concentration needed for 50% inhibition of cell proliferation) were calculated therefrom.
MOLM-13 human AML (acute myeloid leukaemia) cell line

MOLP-8 cells = experiment: MOLP-8 cell proliferation assay (alamarBlue); assay type: cell-based; conditions: inhibition of cell proliferation, 120 hours, human multiple myeloma cell line
Experimental: as §1
The MOLP-8 cells (DSMZ, ACC 569) were sown at a concentration of 4000 cells/well in 100 μl of growth medium (RPMI1640, 20% FCS) on 96-well microtitre plates.
as §2
MOLP-8 human multiple myeloma cell line

[1] = biological target: T1, BRD4 Bromo Domain 1 [BRD4(1)] (Homo sapiens, UniProt O60885); experiment: BRD4(1)/acetylated peptide H4 binding assay (TR-FRET); conditions: inhibition of interaction between His6-tagged BRD4(1) (amino acids 67-152) and acetylated histone H4 peptide
T1 construct: N-terminally His6-tagged BRD4(1) (amino acids 67-152); made in house; host or cells: E. coli
Source text: Protein-Protein Interaction Assay: BRD4/Acetylated Peptide H4 Binding Assay
1. Assay Description for BRD4 Bromo Domain 1 [BRD4(1)]
To assess the BRD4(1) binding strength of the substances described in this application, the ability thereof to inhibit the interaction between BRD4(1) and acetylated histone H4 in a dose-dependent manner was quantified.
For this purpose, a time-resolved fluorescence resonance energy transfer (TR-FRET) assay was used, which measures the binding between N-terminally His6-tagged BRD4(1) (amino acids 67-152) and a synthetic acetylated histone H4 (Ac-H4) peptide with sequence GRGK(Ac)GGK(Ac)GLGK(Ac)GGAK(Ac)RHGSGSK-biotin. The recombinant BRD4(1) protein produced in house according to Filippakopoulos et al., Cell, 2012, 149:214-231 was expressed in E. coli and purified by means of (Ni-NTA) affinity and (Sephadex G-75) size exclusion chromatography. The Ac-H4 peptide can be purchased, for example, from Biosyntan (Berlin, Germany).
In the assay, typically 11 different concentrations of each substance (0.1 nM, 0.33 nM, 1.1 nM, 3.8 nM, 13 nM, 44 nM, 0.15 μM, 0.51 μM, 1.7 μM, 5.9 μM and 20 μM) were analysed as duplicates on the same microtitre plate. For this purpose, 100-fold concentrated solutions in DMSO were prepared by serial dilutions (1:3.4) of a 2 mM stock solution into a clear, 384-well microtitre plate (Greiner Bio-One, Frickenhausen, Germany). From this, 50 nl were transferred into a black test plate (Greiner Bio-One, Frickenhausen, Germany). The test was started by the addition of 2 μl of a 2.5-fold concentrated BRD4(1) solution (final concentration typically 10 nM in the 5 μl of reaction volume) in aqueous assay buffer [50 mM HEPES pH 7.5, 50 mM sodium chloride (NaCl), 0.25 mM CHAPS and 0.05% serum albumin (BSA)] to the substances in the test plate. This was followed by a 10-minute incubation step at 22° C. for the pre-equilibration of putative complexes between BRD4(1) and the substances.
The mixture was then incubated in the dark at 22° C. for one hour and then at 4° C. for at least 3 hours and for no longer than overnight. The formation of BRD4(1)/Ac-H4 complexes was determined by the measurement of the resonance energy transfer from the streptavidin-Eu cryptate to the anti-6His-XL665 antibody present in the reaction. For this purpose, the fluorescence emission was measured at 620 nm and 665 nm after excitation at 330-350 nm in a TR-FRET measuring instrument, for example a Rubystar or Pherastar (both from BMG Lab Technologies, Offenburg, Germany) or a Viewlux (Perkin-Elmer). The ratio of the emissions at 665 nm and at 622 nm was taken as an indicator of the amount of BRD4(1)/Ac-H4 complexes formed.
The data (ratios) obtained were normalized, with 0% inhibition corresponding to the mean from the measurements for a set of controls (typically 32 data points) in which all the reagents were present. In these, in place of test substances, 50 nl of DMSO (100%) were used Inhibition of 100% corresponded to the mean from the measurements for a set of controls (typically 32 data points) in which all the reagents except BRD4(1) were present. The IC50 was determined by regression analysis based on a 4-parameter equation (minimum, maximum, IC50, Hill; Y=max+(min−max)/(1+(X/IC50)Hill).

Row | SMILES | IC50 (MOLM-13 cells) | IC50 [1] | IC50 (MOLP-8 cells)
1 | COc1ccc(CN2c3cc(Nc4ccc(C(=O)NCC5COC5)cc4)ccc3N(C)C(=O)[C@H]2C)cc1 [Example 19, 4-{[(3R)-4-(4-methoxybenzyl)-1,3-dimethyl-2-oxo-1,2,3,4-tetrahydroquinoxalin-6-yl]amino}-N-(oxetan-3-ylmethyl)benzamide] | 335 nM | 148 nM | 124 nM
2 | COc1ccc(CN2c3cc(Nc4ccc(C(=O)N5CC6(COC6)C5)cc4)ccc3N(C)C(=O)[C@H]2C)cc1 [Example 20, (3R)-4-(4-methoxybenzyl)-1,3-dimethyl-6-{[4-(2-oxa-6-azaspiro[3.3]hept-6-ylcarbonyl)phenyl]amino}-3,4-dihydroquinoxalin-2(1H)-one] | 351 nM | 105 nM | 120 nM
3 | COc1ccc(CN2c3cc(Nc4ccc(C(=O)NCCN5CCN(C)CC5)cc4)ccc3N(C)C(=O)[C@H]2C)cc1 [Example 21, 4-{[(3R)-4-(4-methoxybenzyl)-1,3-dimethyl-2-oxo-1,2,3,4-tetrahydroquinoxalin-6-yl]amino}-N-[2-(4-methylpiperazin-1-yl)ethyl]benzamide] | 275 nM | 108 nM | 69 nM
4 | COc1ccc(CN2c3cc(Nc4ccc(C(=O)N5CCN(C(C)C)CC5)cc4)ccc3N(C)C(=O)[C@H]2C)cc1 [Example 22, (3R)-4-(4-methoxybenzyl)-1,3-dimethyl-6-[(4-{[4-(propan-2-yl)piperazin-1-yl]carbonyl}phenyl)amino]-3,4-dihydroquinoxalin-2(1H)-one] | 261 nM | 175 nM | 93 nM
5 | C[C@@H]1C(=O)N(C)c2ccc(Nc3ccc(C(=O)N4CCOCC4)cc3)cc2N1C1CCCCCC1 [Example 24, (3R)-4-cycloheptyl-1,3-dimethyl-6-{[4-(morpholin-4-ylcarbonyl)phenyl]amino}-3,4-dihydroquinoxalin-2(1H)-one] | 967 nM | 143 nM | 662 nM
6 | C[C@@H]1C(=O)N(C)c2ccc(Nc3ccc(C(=O)NCC4COC4)cc3)cc2N1C1CCCCCC1 [Example 25, 4-{[(3R)-4-cycloheptyl-1,3-dimethyl-2-oxo-1,2,3,4-tetrahydroquinoxalin-6-yl]amino}-N-(oxetan-3-ylmethyl)benzamide] | 1360 nM | 454 nM | 1360 nM
7 | C[C@@H]1C(=O)N(C)c2ccc(Nc3ccc(C(=O)N4CC5(COC5)C4)cc3)cc2N1C1CCOCC1 [Example 29] | 2270 nM | 185 nM | 1120 nM
8 | C[C@@H]1C(=O)N(C)c2ccc(Nc3ccc(C(=O)N4CC5(CCS5(=O)=O)C4)cc3)cc2N1C1CCOCC1 [Example 31, (3R)-6-({4-[(1,1-dioxido-1-thia-6-azaspiro[3.3]hept-6-yl)carbonyl]phenyl}amino)-1,3-dimethyl-4-(tetrahydro-2H-pyran-4-yl)-3,4-dihydroquinoxalin-2(1H)-one] | 1790 nM | 192 nM | 1250 nM
9 | CC(C)N1CCN(C(=O)c2ccc(Nc3ccc4c(c3)N(C3CCOCC3)[C@H](C)C(=O)N4C)cc2)CC1 [Example 33] | 1050 nM | 310 nM | 509 nM

Further lines, with some results ahead:

Row | IC50 (MOLM-13 cells) | IC50 [1] | SMILES | IC50 (MOLP-8 cells)
10 | 1260 nM | 176 nM | C[C@@H]1C(=O)N(C)c2ccc(Nc3ccc(C(=O)NC4CCN(C)CC4)cc3)cc2N1C1CCCCCC1 [Example 23, 4-{[(3R)-4-cycloheptyl-1,3-dimethyl-2-oxo-1,2,3,4-tetrahydroquinoxalin-6-yl]amino}-N-(1-methylpiperidin-4-yl)benzamide] | 1020 nM
11 | 1580 nM | 374 nM | C[C@@H]1C(=O)N(C)c2ccc(Nc3ccc(C(=O)NC4CCN(C)CC4)cc3)cc2N1C1CCOCC1 [Example 26, 4-{[(3R)-1,3-dimethyl-2-oxo-4-(tetrahydro-2H-pyran-4-yl)-1,2,3,4-tetrahydroquinoxalin-6-yl]amino}-N-(1-methylpiperidin-4-yl)benzamide] | 1030 nM
12 | 1950 nM | 230 nM | C[C@@H]1C(=O)N(C)c2ccc(Nc3ccc(C(=O)N4CCOCC4)cc3)cc2N1C1CCOCC1 [Example 27, (3R)-1,3-dimethyl-6-{[4-(morpholin-4-ylcarbonyl)phenyl]amino}-4-(tetrahydro-2H-pyran-4-yl)-3,4-dihydroquinoxalin-2(1H)-one] | 1130 nM
13 | 2760 nM | 366 nM | C[C@@H]1C(=O)N(C)c2ccc(Nc3ccc(C(=O)NCC4COC4)cc3)cc2N1C1CCOCC1 [Example 28, 4-{[(3R)-1,3-dimethyl-2-oxo-4-(tetrahydro-2H-pyran-4-yl)-1,2,3,4-tetrahydroquinoxalin-6-yl]amino}-N-(oxetan-3-ylmethyl)benzamide] | 1800 nM
14 | 1700 nM | 384 nM | C[C@@H]1C(=O)N(C)c2ccc(Nc3ccc(C(=O)NCCN4CCN(C)CC4)cc3)cc2N1C1CCOCC1 [Example 30, 4-{[(3R)-1,3-dimethyl-2-oxo-4-(tetrahydro-2H-pyran-4-yl)-1,2,3,4-tetrahydroquinoxalin-6-yl]amino}-N-[2-(4-methylpiperazin-1-yl)ethyl]benzamide] | 869 nM
15 | 3450 nM | 371 nM | CC(=O)N1CCC(NC(=O)c2ccc(Nc3ccc4c(c3)N(C3CCOCC3)[C@H](C)C(=O)N4C)cc2)CC1 [Example 32, N-(1-acetylpiperidin-4-yl)-4-{[(3R)-1,3-dimethyl-2-oxo-4-(tetrahydro-2H-pyran-4-yl)-1,2,3,4-tetrahydroquinoxalin-6-yl]amino}benzamide] | 2580 nM
16 | 2100 nM | 511 nM | C[C@@H]1C(=O)N(C)c2ccc(Nc3ccc(C(=O)NC4CN(C)C4)cc3)cc2N1C1CCOCC1 [Example 34, 4-{[(3R)-1,3-dimethyl-2-oxo-4-(tetrahydro-2H-pyran-4-yl)-1,2,3,4-tetrahydroquinoxalin-6-yl]amino}-N-(1-methylazetidin-3-yl)benzamide] | 1540 nM
17 | 2480 nM | 365 nM | C[C@@H]1C(=O)N(C)c2ccc(Nc3ccc(C(=O)NC4CC4)cc3)cc2N1C1CCOCC1 [Example 35, N-cyclopropyl-4-{[(3R)-1,3-dimethyl-2-oxo-4-(tetrahydro-2H-pyran-4-yl)-1,2,3,4-tetrahydroquinoxalin-6-yl]amino}benzamide] | 1390 nM
